Key:
Test in all cases: Bliss excess, mean over the matrix (fraction); higher = more synergy
[1] = system: VMRC-RCZ (Kidney Carcinoma)
Outline: (§1)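 Cell lines in DMEM/F12 or RPMI with 10% FBS were plated in 1536-well plates, held 24 hours at 37°C, 5% CO2, then given two-drug dose matrices for 72 hours (DMSO typically 0.2%). Viability was read by CellTiter-Glo 2.0 luminescence and scaled as inhibition from 0 (vehicle wells) to 1 (blank wells). Combination Emax is the second-highest inhibition in the matrix; Bliss excess is observed combination effect minus expected EA + EB − EA·EB, EA and EB being single-agent effects.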

[2] = system: T-T (Esophageal Squamous Cell Carcinoma)
Outline: as §1

[3] = system: HCC1419 (Breast Carcinoma)
Outline: as §1

M059J (Glioblastoma) = system: M059J (Glioblastoma)
Outline: as §1

[4] = system: NCCIT (Other Solid Carcinomas)
Outline: as §1

[5] = system: SU-DHL-5 (B-Cell Non-Hodgkin's Lymphoma)
Outline: as §1

[6] = system: MN-60 (B-Lymphoblastic Leukemia)
Outline: as §1

[7] = system: COR-L279 (Small Cell Lung Carcinoma)
Outline: as §1

[8] = system: SK-GT-4 (Esophageal Adenocarcinoma)
Outline: as §1

[9] = system: JHH-4 (Hepatocellular Carcinoma)
Outline: as §1

[10] = system: MOG-G-CCM (Low Grade Glioma)
Outline: as §1

[11] = system: KU812 (Chronic Myelogenous Leukemia)
Outline: as §1

[12] = system: KYSE-270 (Esophageal Squamous Cell Carcinoma)
Outline: as §1

[13] = system: RPMI-8226 (Plasma Cell Myeloma)
Outline: as §1

SJSA-1 (Osteosarcoma) = system: SJSA-1 (Osteosarcoma)
Outline: as §1

[14] = system: MOLM-13 (Acute Myeloid Leukemia)
Outline: as §1

[15] = system: DMS-114 (Small Cell Lung Carcinoma)
Outline: as §1

[16] = system: H9 (T-Cell Non-Hodgkin's Lymphoma)
Outline: as §1

[17] = system: DAN-G (Pancreatic Carcinoma)
Outline: as §1

RD (Rhabdomyosarcoma) = system: RD (Rhabdomyosarcoma)
Outline: as §1

Compound | Bliss excess [1] | Bliss excess [2] | Bliss excess [3] | Bliss excess (M059J (Glioblastoma)) | Bliss excess [4] | Bliss excess [5] | Bliss excess [6] | Bliss excess [7] | Bliss excess [8] | Bliss excess [9] | Bliss excess [10] | Bliss excess [11] | Bliss excess [12] | Bliss excess [13] | Bliss excess (SJSA-1 (Osteosarcoma)) | Bliss excess [14] | Bliss excess [15] | Bliss excess [16] | Bliss excess [17] | Bliss excess (RD (Rhabdomyosarcoma))
CN(C)CCCOc1ccc(-c2ccc3ncc4c(c3c2)n(C2CCOCC2)c(=O)n4C)cn1 [AZD0156] + C=CCn1c(=O)c2cnc(Nc3ccc(N4CCN(C)CC4)cc3)nc2n1-c1cccc(C(C)(C)O)n1 [AZD1775] (first compound max 1 µM, partner max 1 µM) | -0.0797 | -0.0122 | -0.0446 | -0.11 | 0.0278 | -0.0016 | 0.0193 | -0.0763 | -0.0676 | -0.0065 | -0.0193 | -0.0046 | 0.0314 | -0.0017 | -0.0674 | -0.0885 | -0.0479 | -0.0167 | -0.0064 | -0.0377
CN(C)CCCOc1ccc(-c2ccc3ncc4c(c3c2)n(C2CCOCC2)c(=O)n4C)cn1 [AZD0156] + CCN(CCO)CCCOc1ccc2c(Nc3cc(CC(=O)Nc4cccc(F)c4)[nH]n3)ncnc2c1 [AZD2811] (first compound max 1 µM, 7x7, partner max 1 µM) | -0.0451 | -0.0262 | -0.0427 | -0.0165 | -0.0059 | -0.0542 | -0.016 | 0.0256 | -0.0603 | -0.0297 | -0.0228 | -0.0158 | -0.0307 | 0.0092 | -0.0348 | -0.0617 | -0.0209 | -0.124 | 0.0128 | -0.0374
CN(C)CCCOc1ccc(-c2ccc3ncc4c(c3c2)n(C2CCOCC2)c(=O)n4C)cn1 [AZD0156] + C[C@@H]1COCCN1C2=NC(=NC(=C2)C3(CC3)[S@](=N)(=O)C)C4=C5C=CNC5=NC=C4 [AZD6738] (first compound max 1 µM, 7x7, partner max 10 µM) | -0.0479 | -0.014 | -0.0295 | 0.0092 | -0.0174 | 0.0265 | -0.0041 | -0.0547 | -0.0006 | -0.0317 | -0.0593 | -0.0299 | 0.0568 | 0.102 | -0.0266 | -0.0334 | -0.0138 | 0.0525 | 0.0425 | -0.0333
CN(C)CCCOc1ccc(-c2ccc3ncc4c(c3c2)n(C2CCOCC2)c(=O)n4C)cn1 [AZD0156] + O=C(c1cc(Cc2n[nH]c(=O)c3ccccc23)ccc1F)N1CCN(C(=O)C2CC2)CC1 [Olaparib] (first compound max 3 µM, partner max 3 µM) | -0.0283 | 0.122 | -0.0673 | 0.0304 | 0.0093 | 0.197 | -0.0615 | 0.0782 | 0.0611 | -0.0166 | 0.0005 | 0.264 | 0.0509 | 0.103 | 0.017 | 0.21 | -0.0425 | 0.0284 | 0.0824 | 0.0333
C=CCn1c(=O)c2cnc(Nc3ccc(N4CCN(C)CC4)cc3)nc2n1-c1cccc(C(C)(C)O)n1 [AZD1775] + C1CN(CCC1(C(=O)N[C@@H](CCO)C2=CC=C(C=C2)Cl)N)C3=NC=NC4=C3C=CN4 [Capivasertib] (first compound max 3 µM, partner max 3 µM) | -0.083 | -0.0047 | -0.005 | -0.064 | 0.0254 | 0.0233 | -0.0565 | -0.0276 | -0.0802 | 0.0061 | -0.0224 | -0.0326 | – | 0.0216 | -0.0088 | 0.0263 | -0.0132 | -0.0311 | -0.0191 | -0.034
C=CCn1c(=O)c2cnc(Nc3ccc(N4CCN(C)CC4)cc3)nc2n1-c1cccc(C(C)(C)O)n1 [AZD1775] + C[C@@H]1COCCN1C2=NC(=NC(=C2)C3(CC3)[S@](=N)(=O)C)C4=C5C=CNC5=NC=C4 [AZD6738] (first compound max 1 µM, partner max 10 µM) | -0.0639 | 0.0089 | -0.0034 | -0.0206 | 0.0526 | 0.0446 | 0.0165 | 0.0131 | 0.0046 | 0.0007 | 0.0195 | 0.0459 | 0.0567 | 0.0407 | 0.0047 | 0.0233 | 0.0422 | 0.0607 | -0.0079 | 0.0125
C=CCn1c(=O)c2cnc(Nc3ccc(N4CCN(C)CC4)cc3)nc2n1-c1cccc(C(C)(C)O)n1 [AZD1775] + O=C(c1cc(Cc2n[nH]c(=O)c3ccccc23)ccc1F)N1CCN(C(=O)C2CC2)CC1 [Olaparib] (first compound max 1 µM, partner max 10 µM) | -0.0443 | -0.002 | -0.047 | 0.0374 | -0.0458 | 0.0215 | -0.0143 | -0.0572 | -0.0709 | -0.0254 | -0.0542 | -0.039 | -0.0166 | -0.0366 | -0.0262 | 0.0405 | -0.021 | -0.0075 | -0.0142 | -0.0532
CCN(CCO)CCCOc1ccc2c(Nc3cc(CC(=O)Nc4cccc(F)c4)[nH]n3)ncnc2c1 [AZD2811] + C=CCn1c(=O)c2cnc(Nc3ccc(N4CCN(C)CC4)cc3)nc2n1-c1cccc(C(C)(C)O)n1 [AZD1775] (first compound max 1 µM, partner max 1 µM) | -0.0512 | -0.037 | -0.0545 | -0.0176 | -0.0037 | -0.0309 | 0.0139 | 0.0107 | -0.0545 | 0.0015 | -0.0178 | -0.034 | -0.0281 | -0.0172 | -0.0109 | -0.0698 | -0.0129 | 0.0252 | -0.0144 | -0.0222
CCN(CCO)CCCOc1ccc2c(Nc3cc(CC(=O)Nc4cccc(F)c4)[nH]n3)ncnc2c1 [AZD2811] + C[C@@H]1COCCN1C2=NC(=NC(=C2)C3(CC3)[S@](=N)(=O)C)C4=C5C=CNC5=NC=C4 [AZD6738] (first compound max 1 µM, 7x7, partner max 10 µM) | -0.085 | -0.0105 | -0.0757 | -0.0138 | -0.0506 | -0.0382 | -0.0215 | 0.0322 | -0.0183 | -0.0341 | -0.0116 | -0.0764 | -0.0449 | -0.0178 | -0.0348 | -0.0161 | -0.0301 | -0.0673 | -0.0427 | -0.0325
CN(CCO)CC[C@H](CSc1ccccc1)Nc1ccc(S(=O)(=O)NC(=O)c2ccc(N3CCC([C@@H](O)c4ccccc4-c4ccc(Cl)cc4)CC3)cc2)cc1S(=O)(=O)C(F)(F)F [AZD4320] + C[C@@H]1COCCN1C2=NC(=NC(=C2)C3(CC3)[S@](=N)(=O)C)C4=C5C=CNC5=NC=C4 [AZD6738] (first compound max 1 µM, 7x7, partner max 10 µM) | -0.0331 | 0.0494 | -0.0752 | – | -0.0331 | -0.0426 | -0.0472 | 0.0292 | -0.0873 | -0.0657 | -0.0311 | 0.0007 | 0.0161 | 0.0338 | -0.113 | 0.0272 | 0.0073 | -0.0283 | -0.0315 | -0.0334
CN(CCO)CC[C@H](CSc1ccccc1)Nc1ccc(S(=O)(=O)NC(=O)c2ccc(N3CCC([C@@H](O)c4ccccc4-c4ccc(Cl)cc4)CC3)cc2)cc1S(=O)(=O)C(F)(F)F [AZD4320] + Cc1cc2ncnn2cc1Nc1ncc2c(n1)n(C1CCOCC1)c(=O)n2C [AZD7648] (first compound max 1 µM, 7x7, partner max 10 µM) | -0.058 | -0.0069 | -0.133 | -0.0258 | -0.059 | -0.0099 | -0.0177 | -0.0057 | -0.0413 | -0.0356 | -0.0387 | – | -0.0197 | 0.0536 | -0.0406 | 0.0157 | -0.0514 | 0.0046 | -0.0484 | -0.0189
COc1nnc2ccc(N3CCC(c4ccc(OCCN5CCN(C)C(=O)[C@H]5C)cc4)CC3)nn12 [AZD5153] + CN(CC[C@H](CSC1=CC=CC=C1)NC2=C(C=C(C=C2)S(=O)(=O)NC(=O)C3=CC=C(C=C3)N4CCC(CC4)[C@H](C5=CC=CC=C5C6=CC=C(C=C6)Cl)O)S(=O)(=O)C(F)(F)F)CCO [AZD4320] (first compound max 1 µM, 7x7, partner max 1 µM) | – | – | -0.0403 | – | – | -0.0155 | – | – | – | 0.0556 | – | – | – | -0.0027 | – | 0.0205 | – | -0.0291 | 0.0358 | 0.0526
Cc1c2c(nn1C)CSCc1cc(n(C)n1)CSc1cc(c3ccccc3c1)OCCCc1c(C(=O)O)n(C)c3c-2c(Cl)ccc13 [AZD5991] + Cc1cc2ncnn2cc1Nc1ncc2c(n1)n(C1CCOCC1)c(=O)n2C [AZD7648] (first compound max 1 µM, 7x7, partner max 10 µM) | -0.0405 | 0.007 | -0.0196 | -0.0726 | -0.0494 | -0.0377 | 0.0011 | 0.0671 | -0.0651 | -0.0217 | -0.0394 | -0.0046 | -0.0342 | -0.0436 | 0.0585 | -0.0165 | 0.0346 | – | -0.0402 | -0.049
